Laboratory results taken from patent publication US20170037091A1, “STY PEPTIDES FOR INHIBITION OF ANGIOGENESIS” (RESEARCH DEVELOPMENT FOUNDATION, priority 2014, published 2017).

Tests used:
[1] = tested on: secreted VEGF in the media of all tested cell lines; experiment: VEGF ELISA of culture media, all tested cell lines (summary statement); assay type: cell-based; settings: all tested cell lines exposed to STY-RMR
Method: (§1) A 26 amino acid sequence corresponding to a Ser-Thr-Tyr domain within RTEF-1 (FIG. 1), linked to a 10 amino acid cell importation signal (RMR) was synthesized (GenScript NJ). Human ocular melanoma cells (Mel 270, Mel 202), retinoblastoma cells (Y79; ATTC, MD), primate ocular endothelial retina/choroid ocular endothelial cells (RF/6A; ATCC, MD), human retinal pigment epithelial cells (ARPE19; ATCC, MD), and the CRL 1500 breast cancer cell line (ATCC, MD) were plated into 96 well plates and cultured for 24 h. Recombinant STY-RMR peptide was added to the cell culture media at various concentrations (10 to 30 mg/100 mL).
(§2) The amount of VEGF within the media was determined by VEGF ELISA (R&D Systems, MN, USA) and compared between STY-RMR treated and controls (N=3).

[2] = tested on: Human ocular melanoma cells (Mel 270); experiment: XTT cell proliferation assay, Mel 270 ocular melanoma cells; assay type: cell-based; settings: 30 mg/100 mL, XTT at 72 h
Method: as §1
(§3) Cell proliferation was assessed at 72 h using a colorimetric XTT assay (Roche Diagnostics, Indianpolis, Conn., USA). Cell proliferation was expressed as a percentage and compared with untreated control cell growth (N=3).

[3] = tested on: secreted VEGF, ocular retinal-choroidal derived vascular endothelial cells (RF/6A); experiment: VEGF ELISA of culture media, RF/6A cells; assay type: cell-based, primate; settings: 30 mg/100 mL, three days
Method: as §1, §2

[4] = tested on: secreted VEGF, ARPE19 cells; experiment: VEGF ELISA of culture media, ARPE19 cells; assay type: cell-based, human; settings: 30 mg/100 mL, three days
Method: as §1, §2

[5] = tested on: human retinal pigment epithelial cells (ARPE19); experiment: XTT cell proliferation assay, ARPE-19 cells; assay type: cell-based; settings: 30 mg/100 mL, XTT at 72 h
Method: as §1, §3

[6] = tested on: CRL 1500 breast cancer cell line; experiment: XTT cell proliferation assay, CRL 1500 breast cancer cells; assay type: cell-based, human
Method: as §1, with “Recombinant STY-RMR peptide was added to the cell culture media at various concentrations (10 to 30 mg/100 mL).” left out
as §3

[7] = tested on: primate ocular endothelial retina/choroid ocular endothelial cells (RF/6A); experiment: XTT cell proliferation assay, RF/6A ocular endothelial cells; assay type: cell-based; settings: 30 mg/100 mL, XTT at 72 h
Method: as §1, §3

[8] = tested on: secreted VEGF, ocular melanoma cell line 270; experiment: VEGF ELISA of culture media, Mel 270 cells; assay type: cell-based, human; settings: 30 mg/100 mL, three days
Method: as §1, §2

[9] = tested on: secreted VEGF, breast cancer cells (CRL 1500); experiment: VEGF ELISA of culture media, CRL 1500 breast cancer cells; assay type: cell-based, human; settings: 0.1 μg/100 μL, three days
Method: as §1, with “Recombinant STY-RMR peptide was added to the cell culture media at various concentrations (10 to 30 mg/100 mL).” left out
as §2

[10] = tested on: Human ocular melanoma cells (Mel 202); experiment: XTT cell proliferation assay, Mel 202 ocular melanoma cells; assay type: cell-based; settings: 30 mg/100 mL, XTT at 72 h, N=3
Method: as §1, §3

STY-RMR: 26 amino acid STY domain of RTEF-1 linked to 10 amino acid RMR cell importation signal; 36 amino acids (SEQ ID NO:2) (SSFYGVSSQYESPENMIITCSTKVCSRMRRMRRMRR)
secreted VEGF in the media, result in words [1]: decreased | inhibition of Mel270 ocular melanoma cell proliferation below control [2]: 60% | reduction of secreted VEGF, RF/6A ocular vascular endothelial cells (ELISA) [3]: 80% | reduction of VEGF levels compared to control, ARPE19 cells (ELISA) [4]: 88% | inhibition of ARPE-19 retinal pigment epithelial cell proliferation [5]: 75% | inhibition of breast cancer cell (CRL 1500) proliferation ([6]; 0.1 μg/100 μL twice a day for three days): 9% | inhibition of breast cancer cell (CRL 1500) proliferation ([6]; 0.2 μg/100 μL twice a day for three days): 27% | inhibition of breast cancer cell (CRL 1500) proliferation ([6]; 0.5 μg/100 μL twice a day for three days): 27% | inhibition of breast cancer cell (CRL 1500) proliferation ([6]; 1 μg/100 μL twice a day for three days): 27% | inhibition of breast cancer cell (CRL 1500) proliferation ([6]; 5 μg/100 μL twice a day for three days): 50% | inhibition of breast cancer cell (CRL 1500) proliferation ([6]; 6 μg/100 μL twice a day for three days): 50% | inhibition of RF/6A ocular endothelial cell proliferation [7]: 42% | reduction in secreted VEGF levels, ocular melanoma cell line 270 (ELISA) [8]: 81% | decrease of VEGF levels in breast tumor cells (ELISA) [9]: 78% | inhibition of Mel 202 ocular melanoma cell proliferation [10]: 87%
